Assay results from PMC12797170, “Potent Competitive Inhibitors of Ecto-5′-nucleotidase (CD73) based on 6‑(Het)aryl-7-deazapurine Ribonucleoside 5′‑O‑Bisphosphonates” (ACS Pharmacology & Translational Science, 2025).
Converted amounts (≈) assume the structure as drawn. Where two headings read alike, the source gives them in different places.

How the values were obtained:
[1] = target: T1, recombinant human CD73 (hCD73) (Homo sapiens, UniProt P21589); experiment: CD73 activity assay on recombinant human CD73; assay type: biochemical; conditions: ΔGexp = RT ln Ki
T1 sequence (P21589 27-574): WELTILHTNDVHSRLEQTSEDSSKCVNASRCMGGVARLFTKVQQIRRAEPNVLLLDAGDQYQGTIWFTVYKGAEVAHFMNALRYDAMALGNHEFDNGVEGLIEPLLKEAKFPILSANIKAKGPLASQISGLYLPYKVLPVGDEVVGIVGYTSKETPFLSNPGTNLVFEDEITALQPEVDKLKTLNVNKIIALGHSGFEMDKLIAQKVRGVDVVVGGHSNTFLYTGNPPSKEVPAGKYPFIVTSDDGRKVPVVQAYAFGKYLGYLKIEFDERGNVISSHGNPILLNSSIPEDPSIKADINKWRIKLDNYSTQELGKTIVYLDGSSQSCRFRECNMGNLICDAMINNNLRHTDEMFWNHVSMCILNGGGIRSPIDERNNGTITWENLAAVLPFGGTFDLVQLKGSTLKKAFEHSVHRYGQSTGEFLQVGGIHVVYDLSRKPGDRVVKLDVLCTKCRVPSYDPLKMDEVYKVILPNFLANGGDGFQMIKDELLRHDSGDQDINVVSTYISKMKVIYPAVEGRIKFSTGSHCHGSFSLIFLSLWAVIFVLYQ

[2] = In vivo pharmacokinetic study, intravenous; set-up: species or system male CD-1 mice; conditions: for half-life: male, footnote: t1/2 stability in plasma, text: half-life in mouse PK
How it was run: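 Single intravenous dose in male CD-1 mice (n=3, 9 weeks, 29.2–33.7 g). Plasma levels measured by LC-MS/MS at 5, 15, 30, 60, 120, 240 and 480 min.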

[3] = Plasma protein binding, equilibrium dialysis, human plasma; assay type: in vitro ADME; conditions: undiluted plasma
[4] = Plasma protein binding, mouse plasma; assay type: in vitro ADME
[5] = Kinetic solubility in PBS; assay type: physicochemical; conditions: phosphate-buffered saline, pH 7.4, aqueous buffer, kinetic from dmso stock
How it was run: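 DMSO stocks diluted into PBS pH 7.4 to 100 μM and shaken 2 h at room temperature in duplicate, then filtered by centrifugation. Filtrates diluted 1:99 in 50% acetonitrile. Quantified by Echo-MS against calibration standards spanning 0.05–4 μM.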

CCRF-CEM = experiment: In vitro cytotoxic activity; assay type: cell-based; conditions: Homo sapiens
Description: (§1) All the compounds were also tested for their in vitro cytotoxic activity on a small panel of four cancer cell lines (CCRF-CEM, HepG2, HeLa S3, HL-60) and nonmalignant human dermal fibroblasts (NHDF).

HL-60 = experiment: In vitro cytotoxic activity; assay type: cell-based; conditions: Homo sapiens
Description: as §1

HeLa S3 = experiment: In vitro cytotoxic activity; assay type: cell-based; conditions: Homo sapiens
Description: as §1

HepG2 = experiment: In vitro cytotoxic activity; assay type: cell-based; conditions: Homo sapiens
Description: as §1

[6] = tested on: nonmalignant human dermal fibroblasts (NHDF); experiment: In vitro cytotoxic activity; assay type: cell-based
Description: as §1

[7] = Plasma stability assay, human plasma
[8] = Plasma stability assay, mouse plasma
[9] = Microsomal stability assay, human liver microsomes; assay type: in vitro ADME; conditions: for Mics (hu) comp remaining 60 min: 10 μM; for microsomal CLint at 10 µM: pooled liver microsomes, pH 7.4, read-out: Mics (hu) CLint
[10] = Microsomal stability assay, mouse liver microsomes; assay type: in vitro ADME; conditions: for Mics (m) comp remaining 60 min: 10 μM; for microsomal CLint at 10 µM: pooled liver microsomes, pH 7.4, read-out: Mics (m) CLint
[11] = tested on: MDA-MB-231 breast cancer cell line; experiment: CellTox Green cytotoxicity assay; assay type: cell-based, human; conditions: 24 h
Description: MDA-MB-231 cells were harvested and counted using an automated cell counter. A total of 2,500 cells per well were seeded in 20 μL of phenol red-free complete RPMI medium into black 384-well plates. Five μL of CD73 inhibitors (final concentration: […]) or 5 μL PBS (negative control) were added to each well, except for wells designed as maximal signal (dead cell) controls. Plates were incubated for 24 h at 37 °C in a humidified CO2 incubator. To generate the maximum signal control, 5 μL of lysis buffer (CellTox Green Cytotoxicity Assay, Promega) was added to the dead cell controls, followed by a 30 min incubation at room temperature. Subsequently, 25 μL/well of CellTox Green Dye (diluted 1:500 in the assay buffer; Promega) was added. Plates were incubated in the dark on an orbital shaker at 500–700 rpm for 15 min. Fluorescence was measured using an Infinite M1000 plate reader (Tecan) with excitation at 485–500 nm and emission at 520–530 nm. Data were analyzed in GraphPad Prism 10.
Figure S2: Effect of CD73 inhibition on the viability of CD73-expressing breast cancer cell line. MDA-MB-231 cells were incubated with 10 µM CD73 inhibitors for 24 hours. Viability was assessed using the CellTox™ Green Cytotoxicity Assay.
± s.d. of technical triplicates (s.d., standard deviation).
(1 picture or pasted object on this page, not shown here)

in vitro [12] = conditions: human, plasma
in vitro [13] = conditions: mouse, plasma
CD8+ T cells = experiment: CD8+ T cell activation assay (CD25, IFN-γ, granzyme B); assay type: cell-based, human; conditions: 500 nM, separate CD8+ T-cell activation assays
Description: 6 CD73 inhibition partially reverses the immunosuppressive effect of adenosine generated from AMP in CD8 ^ + T cells. CD8^+ T cells were activated using CD3/CD28 activation beads in the presence of 2.5 μM EHNA, with or without 1 mM AMP and CD73 inhibitors (500 nM or 50 nM). A. CD25 expression. The percentage of CD8^+ T cells expressing the activation marker CD25 was measured by flow cytometry 60 h after activation. Data represent technical triplicates. B. Cytokine secretion. Granzyme B and IFN-γ levels in the culture supernatant were quantified by ELISA 60 h after activation. The data represent technical duplicates from two independently treated wells.
Peripheral blood was obtained from healthy donors at the Military University Hospital Prague, following informed consent. CD8+ T cells were enriched using the RosetteSep Human CD8+ T Cell Enrichment Cocktail ([…] Technologies) according to the manufacturer’s instructions and subsequently isolated by density gradient centrifugation using SepMate tubes ([…] Technologies). Residual red blood cells were lysed using a red blood cell lysis buffer (155 mM NH4Cl, 12 mM NaHCO3, 0.1 mM EDTA, pH = 7.1–7.4). The isolated CD8+ T cells were resuspended in complete RPMI and counted using an automated cell counter.
CD8+ T cells were seeded at 5 × 10^4 cells/well in 50 μL of complete RPMI in a flat-bottom 96-well plate. […] This was followed by the addition of 10 μL of a CD73 inhibitor at either 5 μM or 500 nM (experimental wells) or 10 μL of complete RPMI (control wells). Subsequently, 20 μL of 5 mM AMP was added to all wells except those serving as controls for maximal T cell activation. […]
Following incubation, supernatants were collected for quantification of IFN-γ and granzyme B using ELISA. […] Finally, stained cells were washed and analyzed using a BD LSRFortessa flow cytometer. Data were processed and analyzed using FlowJo software (version 10.8.1) and GraphPad Prism 10.
Secretion of IFN-γ and granzyme B was quantified using Human IFN-γ DuoSet ELISA and Human Granzyme B DuoSet ELISA (R&D Systems) according to the manufacturer’s instructions. […]

[14] = AB680 literature row of Table 4; cited from earlier work
[15] = mouse, plasma, 1 mg/kg, male CD-1 mice, intravenous, single dose, read-out: Cl (obs), observed clearance
[16] = human plasma protein binding, read-out: PPB (hu) (converted)
[17] = CD-1, mouse, plasma, iv, 1 mg/kg, intravenous
[18] = mouse, plasma, Tables 2 and 4, mouse plasma, read-out: fup, fraction unbound in mouse plasma
[19] = mouse, plasma, mouse plasma protein binding, read-out: PPB (m) (converted)

| SMILES | dG_exp, experimental binding free energy [1] | clearance [2, 15] [mL/min/kg] | fraction unbound at 4 h, 100 µM [3, 16] | solubility at 2 h [5] [µM] | IC50 (CCRF-CEM) [µM] | IC50 (HL-60) [µM] | IC50 (HeLa S3) [µM] | IC50 (HepG2) [µM] | IC50 [6] [µM] | half-life [2, 17] [h] | fraction unbound at 4 h, 100 µM [4, 18] | fraction unbound at 4 h, 100 µM [4, 19] | Mics (hu) comp remaining 60 min [9] [%] | microsomal CLint at 10 µM [9] [µL/min/mg] | Mics (m) comp remaining 60 min [10] [%] | microsomal CLint at 10 µM [10] [µL/min/mg] | half-life at 10 µM (in vitro [12]) [h] | half-life at 10 µM (in vitro [13]) [h] | further results |
| --- | --- | --- | --- | --- | --- | --- | --- | --- | --- | --- | --- | --- | --- | --- | --- | --- | --- | --- | --- |
| O=P(O)(O)CP(=O)(O)OC[C@H]1O[C@@H](n2ccc3c(-c4cc5ccccc5c5ccccc45)ncnc32)[C@H](O)[C@@H]1O [4A.11] | –13.1 kcal/mol | 2 | 0.013 | 68 (≈ 39.8 µg/mL) | > 10 | > 10 | > 10 | > 10 | > 10 |  |  |  |  |  |  |  |  |  | clearance ([2]; in vivo PK in mice, unit not given): moderate clearance; half-life ([2]; CD-1, 1 mg/kg, intravenous): 1.65 h; fraction unbound at 4 h, 100 µM ([3]; Tables 1 and 3, human plasma as printed in footnote, read-out: fup, fraction unbound in human plasma): 0.31; fraction unbound at 4 h, 100 µM ([4]; mouse plasma protein binding, read-out: PPB (m) (converted)): 0.222; half-life at 10 µM [7]: > 2 h; half-life at 10 µM [8]: > 2 h |
| O=P(O)(O)CP(=O)(O)OC[C@H]1O[C@@H](n2ccc3c(-c4cccc5ccccc45)nc(Cl)nc32)[C@H](O)[C@@H]1O [7B.6] | –15.4 kcal/mol | 0.73 | 0.034 | 92 (≈ 52.4 µg/mL) | > 10 | 2.9 | > 10 | > 10 | > 10 | 2.1 | 0.27 | 0.274 | 96 | 1 | 94 | 2 | > 2 | > 2 | in vitro cytotoxicity against MDA-MB-231 [11]: nontoxic |
| O=P(O)(O)CP(=O)(O)OC[C@H]1O[C@@H](n2ccc3c(-c4cccc5ccccc45)nc(F)nc32)[C@H](O)[C@@H]1O [14D.6] | –14.4 kcal/mol | 1.3 | 0.033 | 89 (≈ 49.3 µg/mL) | > 10 | > 10 | > 10 | > 10 | > 10 | 2.3 | 0.42 |  | 100 | < 1 | 111 | < 1 | > 2 | > 2 |  |
| O=P(O)(O)CP(=O)(O)OC[C@H]1O[C@@H](n2ccc3c(-c4cccc5c4CCCC5)nc(F)nc32)[C@H](O)[C@@H]1O [14D.12] | –15.1 kcal/mol | 1.4 | 0.023 | 84 (≈ 46.8 µg/mL) | > 10 | > 10 | > 10 | > 10 | > 10 | 2.25 | 0.23 | 0.235 | 99 | < 1 | 116 | < 1 | > 2 | > 2 |  |
| Cc1nc(-c2cc3ccccc3o2)c2ccn([C@@H]3O[C@H](COP(=O)(O)CP(=O)(O)O)[C@@H](O)[C@H]3O)c2n1 [18E.8] | –14.7 kcal/mol | 7.4 | 0.026 | 86 (≈ 46.4 µg/mL) | > 10 | > 10 | > 10 | > 10 | > 10 | 0.25 | 0.3 | 0.302 | 95 | 2 | 103 | < 1 | > 2 | > 2 |  |
| C[C@H](Nc1cc(Cl)nc2c1cnn2[C@@H]1O[C@H](COP(=O)(O)CP(=O)(O)O)[C@@H](O)[C@H]1O)c1ccccc1F [AB680, quemliclustat, reference compound] |  |  | ≤ 0.01 | 76 (≈ 44.1 µg/mL) |  |  |  |  |  |  | 0.1 | 0.098 | 118 | < 2 | 117 | < 2 | > 2 | > 2 | median increase in CD25 expression (CD8+ T cells): 41%; fup, fraction unbound in mouse plasma [14]: 0.89 |
